Reference: patent publication US20060052419A1, “Use of pyridly amides as inhibitors of angiogenesis” (priority 2002, published 2006)

What was measured:
[1] = Maximum tolerated dose (MTD); parameters: species or system Balb/c mice; conditions: Balb/c, mouse, in vivo
Description: N-[4-(1-benzoyl-piperidin-4-yl)-butyl]-3-(pyridin-3-yl)-acrylamide was given to the animals p.o. twice a day on days 10, 11, 12, 13, 14, and 15 after tumor implantation. The doses were 3, 5, 6, or 10 mg/kg per each administration. TNP-470 was injected into the animals s.c. on days 2, 4, 6, 8, 10, 12, 14, 16, 18 and 20 after tumor implantation at the maximum tolerated dose, 30 mg/kg. Control animals received the vehicle (0.9% saline solution) p.o. twice a day on days 10, 11, 12, 13, 14, and 15 after tumor implantation. At least seven animals per test group were used.
TNP-470 was administered at the MTD (maximum tolerated dose), 30 mg/kg, and over a longer time range than BPPA which was given below the MTD (approximately 12 mg/kg).

[2] = system: murine renal cell carcinoma (RENCA); experiment: Blood vessel density in primary tumors of murine renal cell carcinoma (RENCA) model; type: in vivo, Balb/c mice; conditions: sacrifice day 21
Description: Murine RENCA cells were originally obtained from a tumor that arose spontaneously in the kidney of BALB/c mice. Histologically, RENCA consists of granular cell type adenocarcinoma, which is pleomorphic with large nuclei. Monolayers of murine RENCA cells were grown in RPMI 1640 with phenol red supplemented with 10% FCS, 2 mM L-glutamine, 100 units penicillin/ml, and 100 μg of streptomycin/ml. RENCA cells were cultured in a humidified atmosphere of 95% air and-5% carbon dioxide at 37° C. Media were routinely changed every 3 days.
For the in vivo administration N-[4-(1-benzoyl-piperidin-4-yl)-butyl]-3-(pyridin-3-yl)-acrylamide was solubilized in a 0.9% saline solution and TNP-470 in a saline solution containing 3% absolute ethanol.
All experiments were carried out using 6-8 weeks old male Balb/c mice (approximate weight, 20 g). Mice are maintained in separated conventional housing at constant temperature and humidity […]
All animals were sacrificed on day 21 after tumor implantation and the tumor tissue of all animals was surgically removed and quickly frozen in liquid nitrogen. […] For the visualization of the blood vessels, immunohistochemical staining for CD 31 (PECAM-1 and MEC 13.3; PharMingen, San Diego, Calif.) was performed, and vessels were counted microscopically using a defined magnification.

[3] = system: VEGF production in HepG2 cells; experiment: VEGF production in HepG2 cells (ELISA of culture supernatant); type: cell-based, human
Description: Trypsin/EDTA: 0.05% (w/v) trypsin (Difco, Detroit, USA)+0.016% (w/v) EDTA (Sigma, Deisenhofen, Germany). N-[4-(1-benzoyl-piperidin-4-yl)-butyl]-3-(pyridin-3-yl)-acrylamide (in the following also referred to as BPPA) was synthesized as described in the literature, by the department of chemistry at Klinge Pharma GmbH, Munich, Germany.
Stock solutions of test compound: a 10 mM solution was prepared in dimethyl sulfoxide (DMSO) and stored at −18° C.; further dilution steps were done in ethanol.
The human-derived tumor cell lines HepG2 (liver carcinoma) was obtained from the American Type Culture Collection (ATCC), Rockville, Md., USA.
Richter's Improved Minimal Essential Medium, Zinc Option (IMEM-ZO), was purchased from Gibco BRL, Life Technologies (Eggenstein, Germany). The standard medium MEM and the human serum albumin were purchased from Sigma (Deisenhofen, Germany). The medium powder was dissolved in deionized water, the pH titrated to 7.2 with HCl/NaOH and sterilized by filtration. The medium was supplemented with 10% fetal calf serum (FCS), PAN Systems GmbH, Aidenbach, Germany.
Monolayer cells were detached from 75 cm^2 flasks by removing the growth medium and adding 3 ml trypsin/EDTA solution to each flask. After about 5-10 minutes incubation at 37° C., when the cells were detached from the surface of the dishes, trypsinization was stopped by adding 3 ml Richter's IMEM-ZO medium containing 10% FCS. The cells were suspended by repeated pipetting. For predilution, an aliquot of 20 μl was added to 10 ml Casyton isotonic solution (No. 043-90037P, Scharfe System, Reutlingen, Germany) using a Sysmex Auto Dilutor Type AD-260 (Toa, Medical Electronics Co. Ltd., Kobe, Japan). The cell number was determined by electronic cell volume measurements by counting with a CASY 1 Cell Counter & Analyzer System, Model TTC (Schärfe System, Reutlingen, Germany) equipped with a 60 μm capillary. Following dilution in growth medium (IMEM-ZO), the cells were finally seeded at a density of 25,000 cells per 1000 μl in 24-well culture dishes (Greiner, Frickenhausen, Germany) for the VEGF assay and incubated at 37° C. in a humidified atmosphere of 5% CO2 in air.
After six days of incubation, when the cells were nearly confluent, the medium was removed and cultures were replenished with 1 ml fresh serum free MEM medium containing 0.1% human serum albumin plus the test substance or the solvent ethanol as control. The cells were then incubated at 37° C. in a humidified atmosphere of 5% CO2 in air. On the next day the medium was removed again and the cultures were incubated with further 0.5 ml serum free MEM containing 0.1% human serum albumin plus the test substance or the solvent ethanol as control. After 48 and 72 hours the medium was collected, centrifuged at 1000 rpm for 5 minutes to remove cell debris. Supernatants were stored at −20° C. until quantification of the VEGF concentration. Furthermore the protein content of the remaining cell layer in each well was determined as reference parameter.
VEGF determination was measured in the supernatants of the cell cultures using a commercially available ELISA kit (R&D, Systems, Wiesbaden/Germany). The method for the determination was performed as described in the test kit brochure.
The results are summarized in the following Table 1, where the VEGF concentration in the supernatant after 48 h and 72 h of incubation was determined. […]

SMILES	MTD ([1]; po)	vessel density in the RENCA tumor ([2]; 3, 5, 6 and 10 mg/kg p.o. twice a day on days 10-15 after tumor implantation, CD 31 staining)	VEGF concentration in the supernatant ([3]; 2 nM compound in medium, 48 hours incubation)	VEGF concentration in the supernatant ([3]; 2 nM compound in medium, 72 hours incubation)	VEGF concentration in the supernatant ([3]; 20 nM compound in medium, 48 hours incubation)	VEGF concentration in the supernatant ([3]; 20 nM compound in medium, 72 hours incubation)	inhibition of the production of VEGF ([3]; after 48 hours of incubation, FIG. 1)	MTD ([1]; sc)	vessel density in the RENCA tumor, effectiveness compared to BPPA ([2]; 30 mg/kg (MTD) s.c. on days 2, 4, 6, 8, 10, 12, 14, 16, 18 and 20 after tumor implantation)
O=C(C=Cc1cccnc1)NCCCCC1CCN(C(=O)c2ccccc2)CC1 [BPPA, N-[4-(1-benzoyl-piperidin-4-yl)-butyl]-3-(pyridin-3-yl)-acrylamide]	~12 mg/kg	significantly reduced the vessel density	208.30 pg/200 μl	0.00 pg/200 μl	0.00 pg/200 μl	0.00 pg/200 μl	inhibited the production of VEGF in HepG2 cells very effectively	–	–
CO[C@@H]1[C@H](OC(=O)NC(=O)CCl)CC[C@]2(CO2)[C@H]1[C@@]1(C)O[C@@H]1CC=C(C)C [TNP-470, reference compound]	–	–	–	–	–	–	–	30 mg/kg	not as effective as BPPA
